Positions count from the first letter of the chain named. Activity calls are given as the source filed them. The calls are words filed in the database; no cut-off is given here.
How the values were obtained:
[1] = biological target: T1, Muscarinic acetylcholine receptor M1 (Rattus norvegicus) (UniProt P08482); experiment: (§1) Positive allosteric modulation of rat M1 receptor expressed in CHO cells assessed as increase in acetylcholine-induced calcium mobilization pretreated for 2.5 mins followed by acetylcholine addition and measured after 1 min by Fluo-4-AM dye based assay; format: functional, cell-based
T1 sequence (whole entry): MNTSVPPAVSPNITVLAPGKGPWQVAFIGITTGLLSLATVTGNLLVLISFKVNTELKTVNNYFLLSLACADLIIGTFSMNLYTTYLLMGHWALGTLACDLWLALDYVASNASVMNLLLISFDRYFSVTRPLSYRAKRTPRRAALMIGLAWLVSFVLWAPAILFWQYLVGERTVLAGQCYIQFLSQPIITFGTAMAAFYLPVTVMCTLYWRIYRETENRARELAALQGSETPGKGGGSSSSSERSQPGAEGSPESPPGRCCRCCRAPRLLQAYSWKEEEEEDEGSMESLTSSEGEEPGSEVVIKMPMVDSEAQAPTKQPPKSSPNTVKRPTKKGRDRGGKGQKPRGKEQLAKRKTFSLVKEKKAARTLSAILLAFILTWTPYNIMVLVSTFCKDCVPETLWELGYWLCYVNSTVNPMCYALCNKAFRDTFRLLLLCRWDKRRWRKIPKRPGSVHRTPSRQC

[2] = biological target: T2, Muscarinic acetylcholine receptor M1 (Rattus norvegicus, UniProt P08482); experiment: as §1; format: functional, cell-based
T2 sequence (P08482 whole entry): T1 sequence (whole entry)

[3] = biological target: T1, Muscarinic acetylcholine receptor M1 (Rattus norvegicus); experiment: (§2) Agonist activity at rat M1 receptor expressed in CHO cells assessed as increase in calcium mobilization measured after 2.5 mins by Fluo-4-AM dye based assay; format: functional, cell-based
[4] = biological target: T2, Muscarinic acetylcholine receptor M1; experiment: as §2; format: functional, cell-based
[5] = biological target: T3, Muscarinic acetylcholine receptor M1 (Homo sapiens) (UniProt P11229); experiment: (§3) Positive allosteric modulation of human M1 receptor expressed in CHO cells assessed as increase in acetylcholine-induced calcium mobilization pretreated for 2.5 mins followed by acetylcholine addition and measured after 1 min by Fluo-4-AM dye based assay; format: functional, cell-based
T3 sequence (whole entry): T1 sequence (whole entry) with V5A, S254T, S309P, K320R, G337A, V413I

[6] = biological target: T4, Muscarinic acetylcholine receptor M1 (Homo sapiens, UniProt P11229); experiment: as §3; format: functional, cell-based
T4 sequence (P11229 whole entry): T1 sequence (whole entry) with V5A, S254T, S309P, K320R, G337A, V413I

[7] = biological target: T4, Muscarinic acetylcholine receptor M1; experiment: Agonist activity at human M1 receptor expressed in CHO cells assessed as increase in calcium mobilization measured after 2.5 mins by Fluo-4-AM dye based assay; format: functional, cell-based
[8] = Protein binding in rat plasma assessed as unbound fraction at 5 uL measured after 4 hrs by LC-MS/MS based equilibrium dialysis method; format: ADME, cell-free
[9] = Protein binding in human plasma assessed as unbound fraction at 5 uL measured after 4 hrs by LC-MS/MS based equilibrium dialysis method; format: ADME, cell-free
[10] = Protein binding in rat brain assessed as unbound fraction; format: ADME, tissue-based
[11] = Total brain to plasma partition coefficient, Kp in cannulated Sprague-Dawley rat at 0.2 mg/kg, iv administered via jugular vein as cassette dose measured after 0.25 hrs by LC-MS/MS analysis; format: ADME, organism-based; conditions: for Kp at 0.25 h: Sprague-Dawley, brain and plasma; for Kp: brain, 0.25 h, BLD = below limit of detection
[12] = Ratio of unbound brain to plasma concentration in cannulated Sprague-Dawley rat at 0.2 mg/kg, iv administered via jugular vein as cassette dose measured after 0.25 hrs by LC-MS/MS analysis; format: ADME, organism-based; conditions: for Kp uu at 0.25 h: Sprague-Dawley, brain and plasma, read-out: K(p,uu,brain); for K(p,uu,brain): 0.25 h, BLD = below limit of detection
Mus musculus = experiment: Cholinergic toxicity in C57BL/6J mouse assessed as induction of seizure activity at 100 mg/kg, ip measured within 30 mins; format: organism-based; conditions: in vivo, 0.5 h
[13] = Total brain to plasma partition coefficient, Kp in C57BL/6J mouse at 100 mg/kg, ip after 1 hr by LC-MS/MS analysis; format: ADME, organism-based; conditions: brain and plasma
[14] = Ratio of unbound brain to plasma concentration in C57BL/6J mouse at 100 mg/kg, ip after 1 hr by LC-MS/MS analysis; format: ADME, organism-based; conditions: brain and plasma, read-out: K(p,uu,brain)

Row | SMILES | %max [1] [%] | EC50 ([2]; read-out: EC50) [nM] | %max [3] [%] | EC50 ([4]; read-out: EC50) [nM] | EC50 ([4]; read-out: pEC50 (converted)) [nM] | also measured
1 | Cn1ccc2c(Cc3ccc(-c4nccs4)cc3)cc(C(=O)N[C@@H]3CCOC[C@H]3O)nc21 | 90 | 100 | 41 | 5620 | – | %max [5]: 80%; EC50 [6]: 90 nM; EC50 [7]: 89.1 nM; fraction unbound at 4 h, 5 uL [8]: 0.02; fraction unbound at 4 h, 5 uL [9]: 0.02; fraction unbound [10]: 0.01; Kp at 0.25 h [11]: 0.21; Kp uu at 0.25 h [12]: 0.13; Activity (Mus musculus): Toxic
2 | Cn1ccc(-c2ccc(Cc3cc(C(=O)NC4CCOCC4)nc4c3ccn4C)cn2)n1 | 90 | 760 | 34 | – | > 10000 | EC50 ([4]; cho, read-out: EC50): > 10000 nM
3 | Cn1ccc(-c2ccc(Cc3cc(C(=O)NC[C@@H]4CCCO4)nc4c3ccn4C)cn2)n1 | 84 | 490 | – | – | > 10000 | EC50 ([4]; cho, read-out: EC50): > 10000 nM
4 | Cn1ccc(-c2ccc(Cc3cc(C(=O)NC4CC5(COC5)C4)nc4c3ccn4C)cc2)n1 | 91 | 604 | – | > 10000 | – | –
5 | Cn1ccc(-c2ccc(Cc3cc(C(=O)NC4CCOCC4)nc4c3ccn4C)cc2)n1 | 89 | 560 | – | > 10000 | – | %max [5]: 87%; EC50 [6]: 660 nM; EC50 [7]: 661 nM; fraction unbound at 4 h, 5 uL [8]: 0.04; fraction unbound at 4 h, 5 uL [9]: 0.02; fraction unbound [10]: 0.01; Kp [11]: Bld; K(p,uu,brain) [12]: Bld
6 | Cn1ccc(-c2ccc(Cc3cc(C(=O)N[C@@H]4CCC[C@H]4O)nc4c3ccn4C)cn2)n1 | 86 | 260 | – | – | > 10000 | EC50 ([4]; cho, read-out: EC50): > 10000 nM
7 | Cn1cc(-c2ccc(Cc3cc(C(=O)N[C@@H]4CCCC[C@H]4O)nc4c3ccn4C)cn2)cn1 | 89 | 40 | 58 | 1210 | – | fraction unbound at 4 h, 5 uL [8]: 0.06; fraction unbound at 4 h, 5 uL [9]: 0.04; fraction unbound [10]: 0.07; Kp [11]: Bld; K(p,uu,brain) [12]: Bld; Kp at 1 h [13]: 0.03; Kp uu at 1 h [14]: 0.04; Activity (Mus musculus): Toxic
8 | Cn1ccc(-c2ccc(Cc3cc(C(=O)N[C@@H]4CCCC[C@H]4O)nc4c3ccn4C)cc2)n1 | 87 | 180 | 41 | 3240 | – | %max [5]: 84%; EC50 [6]: 180 nM; EC50 [7]: 182 nM
9 | Cn1ccc(-c2ccc(Cc3cc(C(=O)NC4CC5(COC5)C4)nc4c3ccn4C)cn2)n1 | 89 | 570 | – | > 30000 | > 31600 | –
10 | Cn1ccc2c(Cc3ccc(-c4nccs4)cc3)cc(C(=O)NC3CCOCC3)nc21 | 78 | 1740 | – | > 30000 | > 31600 | –
11 | Cn1ccc2c(Cc3ccc(-n4cccn4)cc3)cc(C(=O)NC3CCOCC3)nc21 | 87 | 490 | 26 | – | > 10000 | EC50 ([4]; cho, read-out: EC50): > 10000 nM
12 | Cn1ccc2c(Cc3ccc(-c4cscn4)cc3)cc(C(=O)NC3CCOCC3)nc21 | 86 | 760 | – | > 30000 | > 31600 | –
13 | Cn1cc(-c2ccc(Cn3cc(C(=O)N[C@H]4CCCC[C@@H]4O)c4c(F)cc(F)cc43)cn2)cn1 | – | – | – | – | – | Activity [1]: inactive
14 | Cn1ccc(-c2ccc(Cc3cc(C(=O)NC4CCOC(C)(C)C4)nc4c3ccn4C)cn2)n1 (centres undefined) | 94 | 550 | – | – | > 10000 | EC50 ([4]; cho, read-out: EC50): > 10000 nM
15 | Cn1ccc(-c2ccc(Cc3cc(C(=O)N[C@@H]4CCCC[C@H]4O)nc4c3ccn4C)cn2)n1 | 87 | 90 to 100 | 53 | 2290 | – | EC50 ([2]; read-out: pEC50 (converted)): 95.5 nM; %max [5]: 79%; EC50 [6]: 120 nM; EC50 [7]: 123 nM; fraction unbound at 4 h, 5 uL [8]: 0.03; fraction unbound at 4 h, 5 uL [9]: 0.12; fraction unbound [10]: 0.04; Kp [11]: Bld; K(p,uu,brain) [12]: Bld; Kp at 1 h [13]: 0.28; Kp uu at 1 h [14]: 0.17; Activity (Mus musculus): Toxic
16 | Cn1ccc2c(Cc3ccc(-c4nccs4)cc3)cc(C(=O)N[C@@H]3CCCC[C@H]3O)nc21 | 91 | 360 | – | > 30000 | > 31600 | –
17 | Cn1ccc(-c2ccc(Cc3cc(C(=O)N[C@@H]4CCOC[C@H]4O)nc4c3ccn4C)cn2)n1 | 86 | 14 | 67 | 575 | – | –
18 | Cn1ccc(-c2ccc(Cc3cc(C(=O)N[C@@H]4CCOC[C@H]4O)nc4c3ccn4C)cc2)n1 | 87 | 40 | 65 | 2240 | – | %max [5]: 83%; EC50 [6]: 60 nM; EC50 [7]: 60.3 nM; fraction unbound at 4 h, 5 uL [8]: 0.03; fraction unbound at 4 h, 5 uL [9]: 0.02; fraction unbound [10]: 0.01; Kp at 0.25 h [11]: 0.11; Kp uu at 0.25 h [12]: 0.05; Kp at 1 h [13]: 0.09; Kp uu at 1 h [14]: 0.04; Activity (Mus musculus): Toxic
19 | Cc1nc(-c2ccc(Cc3cc(C(=O)NC4CCOCC4)nc4c3ccn4C)cc2)co1 | 88 | 760 | – | – | > 10000 | EC50 ([4]; cho, read-out: EC50): > 10000 nM
20 | Cn1ccc(-c2ccc(Cc3cc(C(=O)NCC4CCOCC4)nc4c3ccn4C)cn2)n1 | 87 | 1580 | – | > 30000 | > 31600 | –
21 | O=C(N[C@H]1CCCC[C@@H]1O)C1CN(Cc2ccc(-n3cccn3)cc2)c2ccccc2O1 (some centres undefined) | – | – | – | – | – | Activity [1]: inactive

Source: ChEMBL document CHEMBL4229572, “VU6007477, a Novel M1 PAM Based on a Pyrrolo[2,3-b]pyridine Carboxamide Core Devoid of Cholinergic Adverse Events” (ACS Med Chem Lett, 2018)
